Experimental data reported in PubChem BioAssay (NCI).
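Compound exposure: 48 hours, 5 concentrations, 96-well plates. TGI is the concentration that stops growth completely.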

What was measured:
Assay in all cases: NCI-60 cell line screen, 48 h
CAKI-1 renal = test system: CAKI-1 renal
SN12C renal = test system: SN12C renal
IGROV1 ovarian = test system: IGROV1 ovarian
MALME-3M melanoma = test system: MALME-3M melanoma
BT-549 breast = test system: BT-549 breast
SNB-75 CNS = test system: SNB-75 CNS
HCC-2998 colon = test system: HCC-2998 colon
MOLT-4 leukemia = test system: MOLT-4 leukemia
OVCAR-8 ovarian = test system: OVCAR-8 ovarian
KM12 colon = test system: KM12 colon
HL-60(TB) leukemia = test system: HL-60(TB) leukemia
M14 melanoma = test system: M14 melanoma
A549 NSCLC = test system: A549 NSCLC
SW-620 colon = test system: SW-620 colon
MDA-N = test system: MDA-N
UACC-62 melanoma = test system: UACC-62 melanoma
EKVX NSCLC = test system: EKVX NSCLC
UO-31 renal = test system: UO-31 renal
NCI-H460 lung = test system: NCI-H460 lung
TK-10 renal = test system: TK-10 renal
RPMI-8226 leukemia = test system: RPMI-8226 leukemia
U251 CNS = test system: U251 CNS
SK-MEL-28 melanoma = test system: SK-MEL-28 melanoma
NCI-H522 lung = test system: NCI-H522 lung
HS 578T breast = test system: HS 578T breast
ACHN renal = test system: ACHN renal
RXF 393 renal = test system: RXF 393 renal
CCRF-CEM leukemia = test system: CCRF-CEM leukemia
A498 renal = test system: A498 renal
HCT-15 colon = test system: HCT-15 colon
SK-MEL-2 melanoma = test system: SK-MEL-2 melanoma
HOP-92 NSCLC = test system: HOP-92 NSCLC
HCT-116 colon = test system: HCT-116 colon
NCI-H226 lung = test system: NCI-H226 lung
SK-MEL-5 melanoma = test system: SK-MEL-5 melanoma
MDA-MB-231 breast = test system: MDA-MB-231 breast
PC-3 prostate = test system: PC-3 prostate
HOP-62 NSCLC = test system: HOP-62 NSCLC
OVCAR-3 ovarian = test system: OVCAR-3 ovarian
SNB-19 CNS = test system: SNB-19 CNS
MCF7 breast = test system: MCF7 breast
K-562 leukemia = test system: K-562 leukemia
COLO 205 colon = test system: COLO 205 colon
SF-268 CNS = test system: SF-268 CNS
SR leukemia = test system: SR leukemia
HT29 colon = test system: HT29 colon
SF-295 CNS = test system: SF-295 CNS
SF-539 CNS = test system: SF-539 CNS
786-0 renal = test system: 786-0 renal
UACC-257 melanoma = test system: UACC-257 melanoma
MDA-MB-435 = test system: MDA-MB-435
SK-OV-3 ovarian = test system: SK-OV-3 ovarian
NCI/ADR-RES ovarian = test system: NCI/ADR-RES ovarian
OVCAR-5 ovarian = test system: OVCAR-5 ovarian
OVCAR-4 ovarian = test system: OVCAR-4 ovarian
T-47D breast = test system: T-47D breast
DU-145 prostate = test system: DU-145 prostate
NCI-H23 lung = test system: NCI-H23 lung
LOX IMVI melanoma = test system: LOX IMVI melanoma
DMS 273 small cell lung = test system: DMS 273 small cell lung
M19-MEL melanoma = test system: M19-MEL melanoma
KM20L2 colon = test system: KM20L2 colon
DMS 114 small cell lung = test system: DMS 114 small cell lung
SNB-78 CNS = test system: SNB-78 CNS
LXFL 529 NSCLC = test system: LXFL 529 NSCLC
XF 498 CNS = test system: XF 498 CNS
DLD-1 colon = test system: DLD-1 colon

`COc1cc2c3cc1Oc1c(OC)c(OC)cc4c1C(Cc1ccc(O)c(c1)Oc1ccc(cc1)CC3N(C)CC2)CN(C)C4` (stereo not drawn) showed a TGI (CAKI-1 renal) of 44.3 µM, a TGI (SN12C renal) of 34.7 µM and a TGI (IGROV1 ovarian) of 48.9 µM. It also gave a TGI (MALME-3M melanoma) of 30.9 µM, a TGI (BT-549 breast) of 30.2 µM and a TGI (SNB-75 CNS) of 29.9 µM. It also gave a TGI (HCC-2998 colon) of 13.7 µM, a TGI (MOLT-4 leukemia) of 54.5 µM and a TGI (OVCAR-8 ovarian) of 31.3 µM. It also gave a TGI (KM12 colon) of 26.3 µM, a TGI (HL-60(TB) leukemia) of 6.11 µM and a TGI (M14 melanoma) of 15 µM. For the same molecule, the TGI (A549 NSCLC) was 63.9 µM, the TGI (SW-620 colon) was 30 µM and the TGI (MDA-N) was 24.5 µM. It also gave a TGI (UACC-62 melanoma) of 32.1 µM, a TGI (EKVX NSCLC) of 43.4 µM and a TGI (UO-31 renal) of 29.8 µM. For the same molecule, the TGI (NCI-H460 lung) was 33.7 µM, the TGI (TK-10 renal) was 32.2 µM and the TGI (RPMI-8226 leukemia) was 47.6 µM. It also gave a TGI (U251 CNS) of 24.7 µM, a TGI (SK-MEL-28 melanoma) of 31.9 µM and a TGI (NCI-H522 lung) of 26.2 µM. For the same molecule, the TGI (HS 578T breast) was 38.9 µM, the TGI (ACHN renal) was > 100 µM and the TGI (RXF 393 renal) was 23.4 µM. For the same molecule, the TGI (CCRF-CEM leukemia) was 15.6 µM, the TGI (A498 renal) was 31.2 µM and the TGI (HCT-15 colon) was 33.9 µM. It also gave a TGI (SK-MEL-2 melanoma) of 33.6 µM, a TGI (HOP-92 NSCLC) of 43.4 µM and a TGI (HCT-116 colon) of 19 µM. It also gave a TGI (NCI-H226 lung) of 68.9 µM, a TGI (SK-MEL-5 melanoma) of 26.4 µM and a TGI (MDA-MB-231 breast) of 28.1 µM. For the same molecule, the TGI (PC-3 prostate) was > 100 µM, the TGI (HOP-62 NSCLC) was 37.2 µM and the TGI (OVCAR-3 ovarian) was 30.9 µM. The TGI (SNB-19 CNS) was 84.5 µM, the TGI (MCF7 breast) was 34.2 µM and the TGI (K-562 leukemia) was 29.6 µM. It also gave a TGI (COLO 205 colon) of 21.6 µM, a TGI (SF-268 CNS) of 65.6 µM and a TGI (SR leukemia) of 41.7 µM. It also gave a TGI (HT29 colon) of 13.7 µM, a TGI (SF-295 CNS) of 32.7 µM and a TGI (SF-539 CNS) of 26.9 µM. The TGI (786-0 renal) was 22.9 µM, the TGI (UACC-257 melanoma) was 27.1 µM and the TGI (MDA-MB-435) was 23.7 µM. It also gave a TGI (SK-OV-3 ovarian) of 47.9 µM, a TGI (NCI/ADR-RES ovarian) of 41.7 µM and a TGI (OVCAR-5 ovarian) of 44.8 µM. It also gave a TGI (OVCAR-4 ovarian) of 39.1 µM, a TGI (T-47D breast) of 69.6 µM and a TGI (DU-145 prostate) of 60.8 µM. For the same molecule, the TGI (NCI-H23 lung) was 34.9 µM.
With `Cc1nnc2n1-c1ccccc1N(Cc1ccccc1)CC2` the TGI (CAKI-1 renal) was > 100 µM, the TGI (SN12C renal) was > 100 µM and the TGI (IGROV1 ovarian) was > 100 µM. The TGI (MALME-3M melanoma) was > 100 µM, the TGI (BT-549 breast) was 76.2 µM and the TGI (SNB-75 CNS) was > 100 µM. The TGI (HCC-2998 colon) was > 100 µM, the TGI (MOLT-4 leukemia) was 89.5 µM and the TGI (OVCAR-8 ovarian) was > 100 µM. The TGI (KM12 colon) was > 100 µM, the TGI (HL-60(TB) leukemia) was 60 µM and the TGI (M14 melanoma) was > 100 µM. For the same molecule, the TGI (A549 NSCLC) was > 100 µM, the TGI (SW-620 colon) was > 100 µM and the TGI (MDA-N) was > 100 µM. The TGI (UACC-62 melanoma) was > 100 µM, the TGI (EKVX NSCLC) was > 100 µM and the TGI (UO-31 renal) was > 100 µM. The TGI (NCI-H460 lung) was > 100 µM, the TGI (TK-10 renal) was > 100 µM and the TGI (RPMI-8226 leukemia) was 58.3 µM. The TGI (U251 CNS) was > 100 µM, the TGI (SK-MEL-28 melanoma) was > 100 µM and the TGI (HS 578T breast) was > 100 µM. For the same molecule, the TGI (ACHN renal) was > 100 µM, the TGI (RXF 393 renal) was > 100 µM and the TGI (CCRF-CEM leukemia) was 90.3 µM. For the same molecule, the TGI (A498 renal) was > 100 µM, the TGI (HCT-15 colon) was > 100 µM and the TGI (SK-MEL-2 melanoma) was > 100 µM. For the same molecule, the TGI (HOP-92 NSCLC) was 51.9 µM, the TGI (HCT-116 colon) was > 100 µM and the TGI (NCI-H226 lung) was > 100 µM. For the same molecule, the TGI (SK-MEL-5 melanoma) was > 100 µM, the TGI (MDA-MB-231 breast) was > 100 µM and the TGI (PC-3 prostate) was > 100 µM. For the same molecule, the TGI (HOP-62 NSCLC) was > 100 µM, the TGI (OVCAR-3 ovarian) was > 100 µM and the TGI (SNB-19 CNS) was > 100 µM. For the same molecule, the TGI (MCF7 breast) was > 100 µM, the TGI (K-562 leukemia) was > 100 µM and the TGI (COLO 205 colon) was > 100 µM. The TGI (SF-268 CNS) was > 100 µM, the TGI (SR leukemia) was > 100 µM and the TGI (HT29 colon) was > 100 µM. For the same molecule, the TGI (SF-295 CNS) was > 100 µM, the TGI (SF-539 CNS) was > 100 µM and the TGI (786-0 renal) was > 100 µM. For the same molecule, the TGI (UACC-257 melanoma) was > 100 µM, the TGI (MDA-MB-435) was > 100 µM and the TGI (SK-OV-3 ovarian) was > 100 µM. The TGI (NCI/ADR-RES ovarian) was 69.2 µM, the TGI (OVCAR-5 ovarian) was > 100 µM and the TGI (OVCAR-4 ovarian) was > 100 µM. The TGI (T-47D breast) was > 100 µM, the TGI (LOX IMVI melanoma) was > 100 µM and the TGI (DU-145 prostate) was > 100 µM. For the same molecule, the TGI (NCI-H23 lung) was > 100 µM.
In the case of `CCC1(Br)C(=O)NC(=O)N(C2CC(O)C(CO)O2)C1N=[N+]=[N-]` (stereo not drawn), the TGI (CAKI-1 renal) is reported as > 100 µM, the TGI (SN12C renal) is reported as > 100 µM and the TGI (IGROV1 ovarian) is reported as > 100 µM. The TGI (MALME-3M melanoma) was > 100 µM, the TGI (SNB-75 CNS) was > 100 µM and the TGI (DMS 273 small cell lung) was > 100 µM. The TGI (HCC-2998 colon) was > 100 µM, the TGI (MOLT-4 leukemia) was > 100 µM and the TGI (OVCAR-8 ovarian) was > 100 µM. For the same molecule, the TGI (HL-60(TB) leukemia) was > 100 µM, the TGI (M14 melanoma) was > 100 µM and the TGI (A549 NSCLC) was > 100 µM. The TGI (SW-620 colon) was > 100 µM, the TGI (M19-MEL melanoma) was > 100 µM and the TGI (UACC-62 melanoma) was > 100 µM. For the same molecule, the TGI (EKVX NSCLC) was > 100 µM, the TGI (KM20L2 colon) was > 100 µM and the TGI (UO-31 renal) was > 100 µM. For the same molecule, the TGI (NCI-H460 lung) was > 100 µM, the TGI (DMS 114 small cell lung) was > 100 µM and the TGI (TK-10 renal) was > 100 µM. The TGI (RPMI-8226 leukemia) was > 100 µM, the TGI (U251 CNS) was > 100 µM and the TGI (SK-MEL-28 melanoma) was > 100 µM. For the same molecule, the TGI (NCI-H522 lung) was > 100 µM, the TGI (ACHN renal) was > 100 µM and the TGI (RXF 393 renal) was > 100 µM. For the same molecule, the TGI (CCRF-CEM leukemia) was > 100 µM, the TGI (A498 renal) was > 100 µM and the TGI (SK-MEL-2 melanoma) was > 100 µM. For the same molecule, the TGI (HOP-92 NSCLC) was > 100 µM, the TGI (SK-MEL-5 melanoma) was > 100 µM and the TGI (HOP-62 NSCLC) was > 100 µM. The TGI (OVCAR-3 ovarian) was > 100 µM, the TGI (SNB-19 CNS) was > 100 µM and the TGI (SNB-78 CNS) was > 100 µM. For the same molecule, the TGI (K-562 leukemia) was > 100 µM, the TGI (COLO 205 colon) was > 100 µM and the TGI (SF-268 CNS) was > 100 µM. The TGI (LXFL 529 NSCLC) was > 100 µM, the TGI (HT29 colon) was > 100 µM and the TGI (SF-295 CNS) was > 100 µM. The TGI (SF-539 CNS) was > 100 µM, the TGI (786-0 renal) was > 100 µM and the TGI (UACC-257 melanoma) was > 100 µM. For the same molecule, the TGI (SK-OV-3 ovarian) was > 100 µM, the TGI (XF 498 CNS) was > 100 µM and the TGI (OVCAR-5 ovarian) was > 100 µM. The TGI (DLD-1 colon) was > 100 µM, the TGI (OVCAR-4 ovarian) was > 100 µM and the TGI (LOX IMVI melanoma) was > 100 µM. The TGI (NCI-H23 lung) was > 100 µM.
